Test results from ChEMBL document CHEMBL1949518, “Synthesis and biological evaluation of some new 2-pyrazolines bearing benzene sulfonamide moiety as potential anti-inflammatory and anti-cancer agents” (Eur J Med Chem, 2011).

Assays:
Format in all cases: functional
NCI-H322M = experiment: Antiproliferative activity against human NCI-H322M cells assessed as cell growth at 10^-5 M after 48 hrs by SRB assay relative to control; conditions: read-out: Activity
NCI/ADR-RES = experiment: Antiproliferative activity against human NCI/ADR-RES cells assessed as cell growth at 10^-5 M after 48 hrs by SRB assay relative to control; conditions: read-out: Activity
EKVX = experiment: Antiproliferative activity against human EKVX cells assessed as cell growth at 10^-5 M after 48 hrs by SRB assay relative to control; conditions: read-out: Activity
SNB-19 = experiment: Antiproliferative activity against human SNB19 cells assessed as cell growth at 10^-5 M after 48 hrs by SRB assay relative to control; conditions: SNB-19, 48 h, read-out: Activity
OVCAR-8 = experiment: Antiproliferative activity against human OVCAR8 cells assessed as cell growth at 10^-5 M after 48 hrs by SRB assay relative to control; conditions: OVCAR-8, 48 h, read-out: Activity
HOP-62 = experiment: Antiproliferative activity against human HOP62 cells assessed as cell growth at 10^-5 M after 48 hrs by SRB assay relative to control; conditions: HOP-62, 48 h, read-out: Activity
SF-295 = experiment: Antiproliferative activity against human SF295 cells assessed as cell growth at 10^-5 M after 48 hrs by SRB assay relative to control; conditions: SF-295, 48 h, read-out: Activity
M14 = experiment: Antiproliferative activity against human M14 cells assessed as cell growth at 10^-5 M after 48 hrs by SRB assay relative to control; conditions: M14, 48 h, read-out: Activity
KM12 = experiment: Antiproliferative activity against human KM12 cells assessed as cell growth at 10^-5 M after 48 hrs by SRB assay relative to control; conditions: KM12, 48 h, read-out: Activity
A549 = experiment: Antiproliferative activity against human A549 cells assessed as cell growth at 10^-5 M after 48 hrs by SRB assay relative to control; conditions: A549, 48 h, read-out: Activity
LOX IMVI = experiment: Antiproliferative activity against human LOXIMVI cells assessed as cell growth at 10^-5 M after 48 hrs by SRB assay relative to control; conditions: read-out: Activity
HCT-116 = experiment: Antiproliferative activity against human HCT116 cells assessed as cell growth at 10^-5 M after 48 hrs by SRB assay relative to control; conditions: HCT-116, 48 h, read-out: Activity
HCT-15 = experiment: Antiproliferative activity against human HCT15 cells assessed as cell growth at 10^-5 M after 48 hrs by SRB assay relative to control; conditions: HCT-15, 48 h, read-out: Activity
CCRF-CEM = experiment: Antiproliferative activity against human CCRF-CEM cells assessed as cell growth at 10^-5 M after 48 hrs by SRB assay relative to control; conditions: read-out: Activity
TK-10 = experiment: Antiproliferative activity against human TK10 cells assessed as cell growth at 10^-5 M after 48 hrs by SRB assay relative to control; conditions: TK-10, 48 h, read-out: Activity
SK-MEL-28 = experiment: Antiproliferative activity against human SK-MEL-28 cells assessed as cell growth at 10^-5 M after 48 hrs by SRB assay relative to control; conditions: SK-MEL-28, 48 h, read-out: Activity
Rattus norvegicus = experiment: Antiinflammatory activity in Wistar rat assessed as inhibition of carrageenan-induced paw edema at 20 mg/kg, po administered 30 mins before carrageenan challenge measured after 3 hrs
U-251 = experiment: Antiproliferative activity against human U251 cells assessed as cell growth at 10^-5 M after 48 hrs by SRB assay relative to control; conditions: U-251, 48 h, read-out: Activity
MDA-MB-435 = experiment: Antiproliferative activity against human MDA-MB-435 cells assessed as cell growth at 10^-5 M after 48 hrs by SRB assay relative to control; conditions: MDA-MB-435, 48 h, read-out: Activity
SNB-75 = experiment: Antiproliferative activity against human SNB75 cells assessed as cell growth at 10^-5 M after 48 hrs by SRB assay relative to control; conditions: SNB-75, 48 h, read-out: Activity
IGROV-1 = experiment: Antiproliferative activity against human IGROV1 cells assessed as cell growth at 10^-5 M after 48 hrs by SRB assay relative to control; conditions: IGROV-1, 48 h, read-out: Activity
MDA-MB-231 = experiment: Antiproliferative activity against human MDA-MB-231 cells assessed as cell growth at 10^-5 M after 48 hrs by SRB assay relative to control; conditions: MDA-MB-231, 48 h, read-out: Activity
COLO 205 = experiment: Antiproliferative activity against human COLO205 cells assessed as cell growth at 10^-5 M after 48 hrs by SRB assay relative to control; conditions: COLO 205, 48 h, read-out: Activity
DU-145 = experiment: Antiproliferative activity against human DU145 cells assessed as cell growth at 10^-5 M after 48 hrs by SRB assay relative to control; conditions: DU-145, 48 h, read-out: Activity
NCI-H460 = experiment: Antiproliferative activity against human NCI-H460 cells assessed as cell growth at 10^-5 M after 48 hrs by SRB assay relative to control; conditions: NCI-H460, 48 h, read-out: Activity
SR = experiment: Antiproliferative activity against human SR cells assessed as cell growth at 10^-5 M after 48 hrs by SRB assay relative to control; conditions: read-out: Activity
ACHN = experiment: Antiproliferative activity against human ACHN cells assessed as cell growth at 10^-5 M after 48 hrs by SRB assay relative to control; conditions: read-out: Activity
[1] = Antiproliferative activity against human Hs 578T cells assessed as cell growth at 10^-5 M after 48 hrs by SRB assay relative to control; conditions: read-out: Activity
SK-MEL-5 = experiment: Antiproliferative activity against human SK-MEL-5 cells assessed as cell growth at 10^-5 M after 48 hrs by SRB assay relative to control; conditions: SK-MEL-5, 48 h, read-out: Activity
HT-29 = experiment: Antiproliferative activity against human HT-29 cells assessed as cell growth at 10^-5 M after 48 hrs by SRB assay relative to control; conditions: HT-29, 48 h, read-out: Activity
BT-549 = experiment: Antiproliferative activity against human BT549 cells assessed as cell growth at 10^-5 M after 48 hrs by SRB assay relative to control; conditions: BT-549, 48 h, read-out: Activity
UACC-257 = experiment: Antiproliferative activity against human UACC257 cells assessed as cell growth at 10^-5 M after 48 hrs by SRB assay relative to control; conditions: UACC-257, 48 h, read-out: Activity
OVCAR-3 = experiment: Antiproliferative activity against human OVCAR3 cells assessed as cell growth at 10^-5 M after 48 hrs by SRB assay relative to control; conditions: OVCAR-3, 48 h, read-out: Activity
NCI-H226 = experiment: Antiproliferative activity against human NCI-H226 cells assessed as cell growth at 10^-5 M after 48 hrs by SRB assay relative to control; conditions: NCI-H226, 48 h, read-out: Activity

| SMILES | growth at 10 µM (NCI-H322M) [%] | growth at 10 µM (NCI/ADR-RES) [%] | growth at 10 µM (EKVX) [%] | growth at 10 µM (SNB-19) [%] | growth at 10 µM (OVCAR-8) [%] | growth at 10 µM (HOP-62) [%] | growth at 10 µM (SF-295) [%] | growth at 10 µM (M14) [%] | growth at 10 µM (KM12) [%] | growth at 10 µM (A549) [%] | growth at 10 µM (LOX IMVI) [%] | growth at 10 µM (HCT-116) [%] | growth at 10 µM (HCT-15) [%] | growth at 10 µM (CCRF-CEM) [%] | growth at 10 µM (TK-10) [%] | growth at 10 µM (SK-MEL-28) [%] | inhibition in vivo at 20 mg/kg (Rattus norvegicus) [%] | growth at 10 µM (U-251) [%] | growth at 10 µM (MDA-MB-435) [%] | growth at 10 µM (SNB-75) [%] | further results |
| --- | --- | --- | --- | --- | --- | --- | --- | --- | --- | --- | --- | --- | --- | --- | --- | --- | --- | --- | --- | --- | --- |
| Cc1cc(O)c(C2=NN(c3ccc(S(N)(=O)=O)cc3)C(c3ccc(N(C)C)cc3)C2)c(C)c1Cl (configuration not stated) | 75.3 | 80.3 | 49.7 | 89.8 | 5.73 | 84.3 | 20.4 | 39.1 | 29.1 | 33.2 | 52.4 | 55.1 | 65.2 | 11.6 | 80 | 76.3 | 33 | 70 | 38.6 | 67.4 | growth at 10 µM (IGROV-1): 20.6%; growth at 10 µM (MDA-MB-231): 59%; growth at 10 µM (COLO 205): 30.8%; growth at 10 µM (DU-145): 49.3%; growth at 10 µM (NCI-H460): 3.35%; growth at 10 µM (SR): -24.1%; growth at 10 µM (ACHN): 58.7%; growth at 10 µM [1]: 71.2%; growth at 10 µM (SK-MEL-5): 81.7%; growth at 10 µM (HT-29): 55.1%; growth at 10 µM (BT-549): 112%; growth at 10 µM (UACC-257): 74.1%; growth at 10 µM (OVCAR-3): 68%; growth at 10 µM (NCI-H226): 106% |
| Cc1cc(O)c(C2=NN(c3ccc(S(N)(=O)=O)cc3)C(c3ccc(Cl)cc3)C2)c(C)c1Cl (configuration not stated) | 97.6 | 85.7 | 51.1 | 107 | 75.2 | 107 | 6.34 | 89.3 | 62.4 | 40.8 | 82.8 | 41.1 | 80.5 | 28 | 113 | 90.2 | 80 | 78.3 | 69.3 | 78.7 | growth at 10 µM (IGROV-1): 34.1%; growth at 10 µM (MDA-MB-231): 103%; growth at 10 µM (COLO 205): 76.2%; growth at 10 µM (DU-145): 75.2%; growth at 10 µM (NCI-H460): 47.1%; growth at 10 µM (SR): -22.2%; growth at 10 µM (ACHN): 88.6%; growth at 10 µM [1]: 82.5%; growth at 10 µM (SK-MEL-5): 79.6%; growth at 10 µM (HT-29): 52.7%; growth at 10 µM (BT-549): 95.7%; growth at 10 µM (UACC-257): 97.6%; growth at 10 µM (OVCAR-3): 80.3%; growth at 10 µM (NCI-H226): 88.8% |
| COc1ccc(C2CC(c3c(O)cc(C)c(Cl)c3C)=NN2c2ccc(S(N)(=O)=O)cc2)cc1 (configuration not stated) | 85.1 | 101 | 70.5 | 92.7 | 101 | 78.1 | 152 | 77.8 | 75 | 56 | 70.6 | 75.5 | 92.2 | 38.7 | 104 | 96.7 | 46.7 | 91.3 | 79.3 | 85.1 | growth at 10 µM (IGROV-1): 71.9%; growth at 10 µM (MDA-MB-231): 71%; growth at 10 µM (COLO 205): 102%; growth at 10 µM (DU-145): 92.4%; growth at 10 µM (NCI-H460): 62%; growth at 10 µM (SR): 41.5%; growth at 10 µM (ACHN): 96.7%; growth at 10 µM [1]: 99%; growth at 10 µM (SK-MEL-5): 94.4%; growth at 10 µM (HT-29): 109%; growth at 10 µM (BT-549): 119%; growth at 10 µM (UACC-257): 103%; growth at 10 µM (OVCAR-3): 102%; growth at 10 µM (NCI-H226): 98.7% |
